Where a name gives a salt, the structure may show the parent alone.
System: Acinetobacter baumannii ATCC 17961
Test: Antimicrobial susceptibility testing: 90% growth inhibitory concentration (IC90) determination
Format: cell-based
Settings: ATCC17961, Acinetobacter baumannii ATCC 17961, Iso-Sensitest broth, read-out: ATCC 17961 IC90
How it was run: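 Growth was followed kinetically by OD600 at 20-min intervals for 16 h at 35±2 °C, with ~5×10^5 CFU/ml in Iso-Sensitest broth. Compounds were tested as twofold dilutions (e.g. 50–0.097 μM final). The concentration giving 90% inhibition of log-phase growth was reported.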

SMILES | IC90
Cn1c(-c2cn(CC(F)(F)F)nc2C(F)(F)F)cnc1C(=O)Nc1ccc(C(=O)N2CCN(C(=O)NC3CNC3)CC2)c(Cl)c1 [Example 149, N-(azetidin-3-yl)-4-[2-chloro-4-[[1-methyl-5-[1-(2,2,2-trifluoroethyl)-3-(trifluoromethyl)pyrazol-4-yl]imidazole-2-carbonyl]amino]benzoyl]piperazine-1-carboxamide] | 550 nM
Cn1c(-c2cn(C3CC3)nc2C(F)(F)F)cnc1C(=O)Nc1ccc(C(=O)N2CCC(C3CNC3)CC2)c(Cl)c1 [Example 197, N-(4-(4-(azetidin-3-yl)piperidine-1-carbonyl)-3-chlorophenyl)-5-(1-cyclopropyl-3-(trifluoromethyl)-1H-pyrazol-4-yl)-1-methyl-1H-imidazole-2-carboxamide formate] | 202 nM
Cn1c(-c2cn(C3CC3)nc2C(F)(F)F)cnc1C(=O)Nc1ccc(C(=O)N2CCN(C(=O)[C@H]3CCCCN3)CC2)c(Cl)c1 [Example 273, (R)-N-(3-chloro-4-(4-(piperidine-2-carbonyl)piperazine-1-carbonyl)phenyl)-5-(1-cyclopropyl-3-(trifluoromethyl)-1H-pyrazol-4-yl)-1-methyl-1H-imidazole-2-carboxamide hydrochloride] | 336 nM
C#CCn1cc(-c2cnc(C(=O)Nc3ccc(C(=O)N4CCN(C(=O)N5CCNCC5)CC4)c(Cl)c3)n2C)c(C(F)(F)F)n1 [Example 77, N-[3-chloro-4-[4-(piperazine-1-carbonyl)piperazine-1-carbonyl]phenyl]-1-methyl-5-[1-prop-2-ynyl-3-(trifluoromethyl)pyrazol-4-yl]imidazole-2-carboxamide] | 257 nM
Cn1c(-c2cn(C3CC3)nc2C(F)(F)F)cnc1C(=O)Nc1ccc(C(=O)N2CCN(C(=O)[C@H]3[C@@H]4CNC[C@@H]43)CC2)c(Cl)c1 [Example 383, N-[3-chloro-4-[4-[rac-(1R,5S)-3-azabicyclo[3.1.0]hexane-6-carbonyl]piperazine-1-carbonyl]phenyl]-5-[1-cyclopropyl-3-(trifluoromethyl)pyrazol-4-yl]-1-methylimidazole-2-carboxamide;hydrochloride] | 234 nM
Cn1c(-c2cn(C3CC3)nc2C(F)(F)F)cnc1C(=O)Nc1ccc(C(=O)N[C@H]2[C@@H]3CN(C(=O)N[C@@H]4CCC[C@@H]4N)C[C@@H]32)c(Cl)c1 [Example 334, exo-N-((1R,2S)-2-aminocyclopentyl)-6-(2-chloro-4-(5-(1-cyclopropyl-3-(trifluoromethyl)-1H-pyrazol-4-yl)-1-methyl-1H-imidazole-2-carboxamido)benzamido)-3-azabicyclo[3.1.0]hexane-3-carboxamide formate] | 423 nM
Cn1c(-c2cn(C3CC3(F)F)nc2C(F)(F)F)cnc1C(=O)Nc1ccc(C(=O)NCC2C3CN(C(=O)N[C@H]4CNC[C@@H]4O)CC23)c(Cl)c1 (mixture of isomers) [Example 365, rac-6-((2-chloro-4-(5-(1-(2,2-difluorocyclopropyl)-3-(trifluoromethyl)-1H-pyrazol-4-yl)-1-methyl-1H-imidazole-2-carboxamido)benzamido)methyl)-N-((3S,4S)-4-hydroxypyrrolidin-3-yl)-3-azabicyclo[3.1.0]hexane-3-carboxamide formate] | 483 nM
CCn1cc(-c2cnc(C(=O)Nc3ccc(C(=O)N4CCN(C(=O)N[C@H]5C[C@@H](N)C5)CC4)c(Br)c3)n2C)c(C(F)(F)F)n1 [Example 325, rac-N-((is,3s)-3-aminocyclobutyl)-4-(2-bromo-4-(5-(1-ethyl-3-(trifluoromethyl)-1H-pyrazol-4-yl)-1-methyl-1H-imidazole-2-carboxamido)benzoyl)piperazine-1-carboxamidee formate] | 411 nM
Cn1c(-c2cn(CC(F)(F)F)nc2C(F)(F)F)cnc1C(=O)Nc1ccc(C(=O)N2CCN(C(=O)N[C@H]3C[C@@H](N)C3)CC2)c(Cl)c1 [Example 305, rac-N-((1s,3s)-3-aminocyclobutyl)-4-(2-chloro-4-(1-methyl-5-(1-(2,2,2-trifluoroethyl)-3-(trifluoromethyl)-1H-pyrazol-4-yl)-1H-imidazole-2-carboxamido)benzoyl)piperazine-1-carboxamide hydrochloride] | 373 nM
Cn1c(-c2cn(CC#N)nc2C(F)(F)F)cnc1C(=O)Nc1ccc(C(=O)N[C@H]2[C@@H]3CN(C(=O)N[C@@H]4CNC[C@H]4O)C[C@@H]32)c(Cl)c1 [Example 175, (1R,5S,6s)-6-(2-chloro-4-(5-(1-(cyanomethyl)-3-(trifluoromethyl)-1H-pyrazol-4-yl)-1-methyl-1H-imidazole-2-carboxamido)benzamido)-N-(trans-4-hydroxypyrrolidin-3-yl)-3-azabicyclo[3.1.0]hexane-3-carboxamide Formate] | 330 nM
Cn1c(-c2cn(CC#N)nc2C(F)(F)F)cnc1C(=O)Nc1ccc(C(=O)N[C@H]2C[C@H](NC(=O)[C@@H]3CCNC3)C2)c(Cl)c1 [Example 315, N-[3-chloro-4-[[3-[[(3R)-pyrrolidine-3-carbonyl]amino]cyclobutyl]car-bamoyl]phenyl]-5-[1-(cyanomethyl)-3-(trifluoromethyl)pyrazol-4-yl]-1-methylimidazole-2-carboxamide;formic acid] | 390 nM
Cn1c(-c2cn(CC#N)nc2C(F)(F)F)cnc1C(=O)Nc1ccc(C(=O)N[C@H]2CC[C@@H](N)CC2)c(Cl)c1 [Example 351, N-[4-[(4-aminocyclohexyl)carbamoyl]-3-chlorophenyl]-5-[1-(cyanomethyl)-3-(trifluoromethyl)pyrazol-4-yl]-1-methylimidazole-2-carboxamide;2,2,2-trifluoroacetic acid] | 453 nM
C#CCn1cc(-c2cnc(C(=O)Nc3ccc(C(=O)N4CCN(C(=O)N5CC6CNC6C5)CC4)c(Cl)c3)n2C)c(C(F)(F)F)n1 (stereo not drawn) [Example 86, N-[3-chloro-4-[4-(3,6-diazabicyclo[3.2.0]heptane-3-carbonyl)piperazine-1-carbonyl]phenyl]-1-methyl-5-[1-prop-2-ynyl-3-(trifluoromethyl)pyrazol-4-yl]imidazole-2-carboxamide] | 203 nM
Cn1c(-c2cn(C3CC3)nc2C(F)(F)F)cnc1C(=O)Nc1ccc(C(=O)N2CCN(C(=O)[C@@H]3CCCNC3)CC2)c(Cl)c1 [Example 223, (R)-N-(3-chloro-4-(4-(piperidine-3-carbonyl)piperazine-1-carbonyl)phenyl)-5-(1-cyclopropyl-3-(trifluoromethyl)-1H-pyrazol-4-yl)-1-methyl-1H-imidazole-2-carboxamide hydrochloride] | 252 nM
CN1CCC(C(=O)N2CCN(C(=O)c3ccc(NC(=O)c4ncc(-c5c[nH]nc5C(F)(F)F)n4C)cc3Cl)CC2)CC1 [Example 14, N-[3-chloro-4-[4-(1-methylpiperidine-4-carbonyl)piperazine-1-carbonyl]phenyl]-1-methyl-5-[3-(trifluoromethyl)-1H-pyrazol-4-yl]imidazole-2-carboxamide] | 516 nM
Cn1c(-c2cn(CC3CC3)nc2C(F)(F)F)cnc1C(=O)Nc1ccc(C(=O)N2CCN(C(=O)[C@@H]3CC[C@@H](N)C3)CC2)c(Cl)c1 [Example 206, N-(4-(4-((1R,3R)-3-aminocyclopentane-1-carbonyl)piperazine-1-carbonyl)-3-chlorophenyl)-5-(1-(cyclopropylmethyl)-3-(trifluoromethyl)-1H-pyrazol-4-yl)-1-methyl-1H-imidazole-2-carboxamide] | 224 nM
Cn1c(-c2cn(C3CC3)nc2C(F)(F)F)cnc1C(=O)Nc1ccc(C(=O)N2CCC(C(=O)N[C@H]3C[C@H](N)C3)CC2)c(Cl)c1 [Example 339, N-(3-aminocyclobutyl)-1-[2-chloro-4-[[5-[1-cyclopropyl-3-(trifluoromethyl)pyrazol-4-yl]-1-methyl-imidazole-2-carbonyl]amino]benzoyl]piperi-dine-4-carboxamide; formic acid] | 427 nM
CCn1cc(-c2cnc(C(=O)Nc3ccc(C(=O)N4CCC(CCC(C)(C)N(C)C)CC4)c(Cl)c3)n2C)c(C(F)(F)F)n1 [Example 360, N-(3-chloro-4-(4-(3-(dimethylamino)-3-methylbutyl)piperidine-1-carbonyl)phenyl)-5-(1-ethyl-3-(trifluoromethyl)-1H-pyrazol-4-yl)-1-methyl-1H-imidazole-2-carboxamide] | 474 nM
Cn1c(-c2cn(CC(F)F)nc2C(F)(F)F)cnc1C(=O)Nc1ccc(C(=O)N2CCN(CC(=O)NCCN)CC2)c(Cl)c1 [Example 375, N-(4-(4-(2-((2-aminoethyl)amino)-2-oxoethyl)piperazine-1-carbonyl)-3-chlorophenyl)-5-(1-(2,2-difluoroethyl)-3-(trifluoromethyl)-1H-pyrazol-4-yl)-1-methyl-1H-imidazole-2-carboxamide formate] | 495 nM
CCc1cc(NC(=O)c2ncc(-c3cn(Cc4cccnc4)nc3C(F)(F)F)n2C)ccc1C(=O)N1CCN(C(=O)NCC2(O)CNC2)CC1 [Example 162, 4-[2-ethyl-4-[[1-methyl-5-[1-(pyridin-3-ylmethyl)-3-(trifluoromethyl)pyrazol-4-yl]imidazole-2-carbonyl]amino]benzoyl]-N-[(3-hydroxyazetidin-3-yl)methyl]piperazine-1-carboxamide;formic acid] | 1470 nM

Same assay, conditions: Acinetobacter baumannii, ATCC17961, read-out: ATCC 17961 IC90, Acinetobacter baumannii ATCC 17961, Iso-Sensitest broth

SMILES | IC90
Cn1c(-c2cn(C3CC4(CC4)C3)nc2C(F)(F)F)cnc1C(=O)Nc1ccc(C(=O)N2CCN(C(=O)N[C@H]3C[C@@H](N)C3)CC2)c(Cl)c1 [Example 210, rac-N-((1s,3s)-3-aminocyclobutyl)-4-(2-chloro-4-(1-methyl-5-(1-(spiro[2.3]hexan-5-yl)-3-(trifluoromethyl)-1H-pyrazol-4-yl)-1H-imidazole-2-carboxamido)benzoyl)piperazine-1-carboxamide hydrochloride] | 231 nM

— patent US11390604B2 (Hoffmann-La Roche Inc., priority 2019, dated 2022)
